Laboratory results: publication PMC11343776 (Clinical Pharmacokinetics, 2024)
“Also recorded” adds a separate entry of the source.

Tests used:
ROCK1/2 = test: In vitro cellular kinase inhibition: ROCK1/2; assay type: cell-based
[1] = healthy subjects; cited from earlier work
[2] = Model simulations and covariate assessment; design: species or system patients with advanced or metastatic solid tumours; details: for decrease of CL/F after approximately 120 h: multiple doses
[3] = dose range 80–800 mg; cited from earlier work
[4] = Population pharmacokinetic model of capivasertib plasma concentrations; assay type: in vivo, patients with advanced or metastatic solid tumours
CYP3A = details: capivasertib 400 mg b.i.d., intermittent schedule; cited from earlier work
CYP3A4 = details: single dose capivasertib 80 mg; cited from earlier work
[5] = 400 mg b.i.d. (4/3) after multiple doses
[6] = body weight 47 kg vs 67 kg reference

For `NC1(C(=O)N[C@@H](CCO)c2ccc(Cl)cc2)CCN(c2nc[nH]c3nccc2-3)CC1` [capivasertib], the “inhibition of ROCK-mediated phosphorylation of cofilin” value (ROCK1/2) is listed as “not effective”, the “renal clearance as share of total clearance” value [1] is listed as 21% and the “median AUC12h,ss” value [2, 5] is listed as 7730 ng·h/mL. The “median Cmax,ss” value [2, 5] was 1340 ng/mL, the “decrease of CL/F after approximately 120 h” value ([2]; 400 mg b.i.d.) was 18% and the “decrease of CL/F after approximately 120 h” value ([2]; 480 mg b.i.d.) was 22%. For the same compound, the “dose proportionality of AUC and Cmax” value ([2]; 80–480 mg after multiple doses) was “proportional; also recorded: approximately proportionally”, the “dose proportionality of AUC and Cmax” value ([2]; beyond 480 mg after multiple doses) was “more than proportional; also recorded: more than proportionally” and the “increase in AUC12h,ss” value [2, 6] was 14%. For the same compound, the “increase in Cmax,ss” value [2, 6] was 14%, the “reduction in CLss/F” value [2, 6] was 12% and the “predicted impact of significant covariates on exposure to capivasertib” value ([2]; body weight, dose, paclitaxel, food, formulation) was under 20%. The “increase in CLss/F” value ([2]; concomitant paclitaxel vs no paclitaxel) was 20%, the “time after which steady state is achieved” value ([2]; simulations, three schedules, different dose levels) was “approximately 120 h” and the “dose proportionality of plasma exposure” value [3] was “approximately dose proportional”. The “terminal half-life (t½)” value [3] was “approximately 10 hours”, the “terminal half-life (t½), range” value [3] was 7 to 15 h and the “effective t½” value ([4]; 400 mg b.i.d. (4/3)) was 8.34 h. The “apparent volume of distribution at steady state” value ([4]; at 400 mg) was 255.6 L, the “Lag1_tab absorption lag time for tablets” value ([4]; final model estimate, semi-fasted or fed) was 0.21 h and the “fraction of dose absorbed by zero-order process” value ([4]; oral) was 20%. For the same compound, the “fraction of dose absorbed using the first-order mechanism” value ([4]; oral) was 80%, the “time to maximum concentration” value ([4]; slight variations with dose level, body weight, food status) was 1.4 h and the “increase in midazolam exposure” value (CYP3A) was “up to 75%”. For the same compound, the “increase of capivasertib AUC by itraconazole” value (CYP3A4) was 95%.
